Test results as given in paper PMC5983471 (PLoS ONE, 2018).
Converted amounts (≈) assume the structure as drawn. “And” between values parts separate entries of the source, which are not always exact repeats. Identical values can stand only once. “Also recorded” adds a separate entry of the source. Like-named read-outs stand apart in the source and are kept apart here.

Columns and labels:
[1] = published pharmacokinetics data; cited from earlier work
[2] = system: enzalutamide-resistant LNCaP cells engineered to maintain Stat3 activation; settings: cited from earlier work
[3] = system: abiraterone and/or enzalutamide-resistant models, including AR-V7+ cell lines; settings: cited from earlier work
[4] = Phase I dose-escalation: adverse events and dose-limiting toxicities (CTCAE v4.0)
Experimental: All patients were required to have mCRPC (i.e., disease progression in spite of serum testosterone ≤50 ng/dL) and had received prior abiraterone. Patients were originally required to have detectable AR-V transcripts in circulating tumor cells (CTC) as determined using the AdnaTest assay[9]. […] The primary objective was to assess safety.
We utilized the continual reassessment method (CRM) to evaluate dose-related toxicities and to determine the recommended Phase II dose[37]. We targeted a maximum of 30% of patients incurring dose-limiting toxicities (DLT) up to 30 days after the final (day-28) dose. […] Adverse events (AEs) were documented by incidence and their severity was graded according to the National Cancer Institute–Common Terminology Criteria for Adverse Events (CTCAE) version 4.0. The pharmacokinetic data underwent non-compartmental analysis using Phoenix WinNonlin version 8.0 (Certara USA, Inc; Princeton, NJ), and key pharmacokinetic parameters (e.g., Cmax, Cmin, Css and t1/2) were extracted.

[5] = rats; ref 62 (S1 Protocol, WHO/VBC/DS/88.63); cited from earlier work
[6] = prior experience; ref 27,60 (S1 Protocol); cited from earlier work
AR-V7+ CWR22Rv1 cells = settings: 81.8 ng/mL; cited from earlier work
[7] = system: enzalutamide-resistant, AR-V7+ C4-2B cells; settings: co-cultured with 81.8 ng/mL; cited from earlier work
[8] = ref 27,71 (S1 Protocol); cited from earlier work
metastatic CRPC (PSA) = test: On-study PSA changes; assay type: in vivo, human
Text: The primary objective was to assess safety.

[9] = Plasma niclosamide pharmacokinetics (LCMS, non-compartmental analysis); assay type: in vivo, human
Experimental: Blood for pharmacokinetic analyses were drawn at the following time points after the first dose: 0.5 hr, 1 hr, 1.5 hr, 2 hr, 3 hr, 4 hr, 6 hr, 8 hr and on Day 15. […] After vortexing, the samples were centrifuged at 20000 x G for 10 minutes at 4°C. The supernatant was transferred to a 96-well plate and 2 μL were injected on the liquid chromatography mass spectrometry (LCMS) system. The LCMS system was an ultrapressure liquid chromatography (Agilent (Santa Clara, CA) 1290 series) coupled to an Agilent G6410B triple-quadrupole mass spectrometer. The column was an Agilent Zorbax SB-C18 2.1 mm x 150 mm x 5μ maintained at 45°C. Mobile phase A was 10 mM ammonium formate (pH = 3) and mobile phase B was acetonitrile in the ratio of 35% A: 65% B at 0.4 mL/min.

DU145 = settings: cited from earlier work
[10] = system: AR-V7 prostate cancer models; design: method as in ref 28,29 (S1 Protocol); settings: combined with enzalutamide or abiraterone; ref 28,29 (S1 Protocol); cited from earlier work
[11] = system: AR-V7 prostate cancer models; design: method as in ref 28 (S1 Protocol, Liu et al, 2014); settings: in vitro, 48 hours exposure; ref 28 (S1 Protocol, Liu et al, 2014); cited from earlier work
[12] = AE possibly/probably related, 500 mg PO TID + enzalutamide, Pt# 1, 17, 18
[13] = AE possibly/probably related, 1000 mg PO TID + enzalutamide, Pt# 19, 20
[14] = first dose 500 mg PO, plasma, individual patients Pt# 1, 17, 18
[15] = first dose 500 mg PO, Pt# 1, 17, 18
[16] = first dose 1000 mg PO, plasma, individual patients Pt# 19, 20
[17] = first dose 1000 mg PO, Pt# 19, 20

Compound: O=C(Nc1ccc([N+](=O)[O-])cc1Cl)c1cc(Cl)ccc1O [niclosamide, 2',5-dichloro-4'-nitrosalicylanilide]
- oral bioavailability [1]: poor oral bioavailability
- concentrations at which cells were growth inhibited [2]: ≥ 163.5 ng/mL
- concentrations that consistently inhibited cell growth [3]: ≥ 163.5 ng/mL
- lowest concentration inhibiting some AR-V7+ cell lines [3]: ≥ 81.8 ng/mL
- patients with any toxicities deemed at least possibly related to niclosamide ([4]; 500 mg PO TID cohort): one out of three
- dose-limiting toxicities (DLTs) ([4]; 500 mg PO TID cohort, 3 patients, + enzalutamide): no dose-limiting toxicities; also recorded: No DLTs observed
- tolerability ([4]; 500 mg PO TID in combination with enzalutamide): well tolerated
- Nausea (Grade) ([4]; AE possibly/probably related, 500 mg PO TID + enzalutamide 160 mg daily, Pt# 1, 17, 18): 1 Grade
- Anorexia (Grade) [4, 12]: 1 Grade
- Weight loss (Grade) [4, 12]: 1 Grade
- Nausea (Grade) ([4]; AE possibly/probably related, 1000 mg PO TID + enzalutamide 160 mg daily, Pt# 19, 20): 3 Grade and 3 ^* Grade and 2 Grade
- Abdominal pain (Grade) [4, 13]: 3 Grade
- Anorexia (Grade) [4, 13]: 1 Grade
- Colitis (Grade) [4, 13]: 3 Grade and 3 ^** Grade
- Diarrhea (Grade) [4, 13]: 3 Grade
- Lipase elevation (Grade) [4, 13]: 2 Grade
- Vomiting (Grade) [4, 13]: 3 Grade
- maximum tolerated dose ([4]; PO TID, in combination with enzalutamide 160 mg daily): 500 mg
- oral LD50 [5]: > 5,000 mg/kg body weight
- patients with gastrointestinal side effects (nausea, vomiting and stomach pain) [6]: ~ 10%
- growth inhibition (AR-V7+ CWR22Rv1 cells): did not demonstrate significant growth inhibition
- growth inhibition [7]: growth inhibited
- solubility in acetone [8]: soluble
- solubility in ethanol, chloroform, or ether [8]: sparingly soluble
- solubility in water [8]: almost insoluble
- PSA Day 29 (metastatic CRPC (PSA); 1000 mg PO TID + enzalutamide, Pt# 19): 3009.49 ng/mL
- PSA Change (%) (metastatic CRPC (PSA); Day 1 to Day 29, 1000 mg PO TID + enzalutamide, Pt# 19): 101.7%
- PSA declines (metastatic CRPC (PSA); all dose cohorts, niclosamide + enzalutamide): no PSA declines; also recorded: no evidence for declining PSA
- clinical activity (metastatic CRPC (PSA); any patient enrolled, niclosamide + enzalutamide): no evidence of clinical activity
- patients achieving a Cmax ≥163.5 ng/mL ([9]; 500 mg PO TID cohort): one of three
- patients achieving a Cmax ≥163.5 ng/mL ([9]; 1000 mg PO TID cohort): one of two
- Cmax [9, 14]: 35.7 ng/mL and 88.3 ng/mL
- Tmax [9, 14]: 6 h and 2 h and 1 h
- % of AUC0-∞ extrapolated [9, 15]: 26.6% and 13.7% and 17.2%
- Cmin [9, 15]: 13.3 ng/mL and 6.92 ng/mL and 7.42 ng/mL
- Tmin [9, 15]: 4 h and 8 h
- Cmax [9, 16]: 149 ng/mL
- Tmax [9, 16]: 1 h and 6 h
- First dose AUC0-∞ ([9]; first dose 1000 mg PO, Clast/elimination rate constant used for extrapolation, Pt# 19, 20): 986 ng·h/mL
- % of AUC0-∞ extrapolated [9, 17]: 36.0% and 36.2%
- Apparent oral clearance (clearance divided by fraction absorbed) [9, 17]: 14.9 L/hr per kg of IBW
- Cmin [9, 17]: 45.5 ng/mL and 90.0 ng/mL
- First dose AUC0-τ [9, 17]: 629 ng·h/mL
- Tmin [9, 17]: 8 h
- Cmax ([9]; human, plasma, po, 1000 mg, first dose 1000 mg PO, plasma, individual patients Pt# 19, 20, read-out: Cmax): 182 ng/mL
- AUC(0-inf) ([9]; human, plasma, po, 1000 mg, first dose 1000 mg PO, Clast/elimination rate constant used for extrapolation, Pt# 19, 20, read-out: First dose AUC0-∞): 1060 ng·h/mL
- CL/F ([9]; human, plasma, po, 1000 mg, first dose 1000 mg PO, Pt# 19, 20, read-out: Apparent oral clearance (clearance divided by fraction absorbed) (converted)): 203 mL/min/kg
- AUC ([9]; human, plasma, po, 1000 mg, first dose 1000 mg PO, Pt# 19, 20, read-out: First dose AUC0-τ): 676 ng·h/mL
- CL/F ([9]; male, human, plasma, po, 1000 mg, all 5 patients, 500 and 1000 mg cohorts, read-out: apparent oral clearance (CL/F), range over patients): 152 to 630 mL/min/kg
- IC50, decreased cell proliferation (DU145): 0.33 µg/mL (≈ 1.01 µM)
- anti-tumor effect of combination [10]: synergistic
- lowest concentration inducing apoptosis / inhibiting cell line growth [11]: ≥ 0.25 µg/mL
